These results are taken from ChEMBL document CHEMBL1159219, “Flavonoids as DNA topoisomerase antagonists and poisons: structure-activity relationships” (J Nat Prod, 1995).

Values after ≈ are worked out from the molar mass of the structure shown. Active and inactive are the calls of the source. The rule behind the calls is not given here.

The nature of experiment [1]: Inhibition of calf thymus DNA topoisomerase 1 catalytic domain-mediated supercoiled Escherichia coli pUC8 DNA relaxation after 30 mins by agarose gel electrophoresis. More on the design: species or system Bos taurus.
Experiment [2] concerns the target T1, DNA topoisomerase 2-alpha (Homo sapiens, UniProt P11388). Description: Inhibition of human DNA topoisomerase 2 catalytic domain-mediated knotted bacteriophage P4Virl dell0 DNA unknotting at 100 uM by agarose gel electrophoresis.
The species named for experiment [3] is Bos taurus. The experiment is described as follows: Inhibition of calf thymus DNA topoisomerase 1 catalytic domain-mediated supercoiled Escherichia coli pUC8 DNA relaxation at 100 uM after 30 mins by agarose gel electrophoresis.
The target of experiment [4] is T1, DNA topoisomerase 2-alpha. The experiment is described as follows: Enhancement of human DNA topoisomerase 2-mediated Escherichia coli pUC8 DNA cleavage assessed as production of linear DNA at 100 ug/ml after 30 mins by agarose gel electrophoresis relative to control.
Experiment [5] concerns the target T1, DNA topoisomerase 2-alpha. Description: Enhancement of human DNA topoisomerase 2-mediated Escherichia coli pUC8 DNA cleavage after 30 mins by agarose gel electrophoresis. More on the design: concentration or dose not given beside the values.
The target of experiment [6] is T1, DNA topoisomerase 2-alpha. Description: Enhancement of human DNA topoisomerase 2-mediated Escherichia coli pUC8 DNA cleavage assessed as production of linear DNA at 100 ug/ml after 30 mins by agarose gel electrophoresis relative to total DNA.
The next experiment concerns Escherichia coli. Description: Binding affinity to Escherichia coli pUC8 DNA assessed as production of linear DNA at 100 ug/ml after 30 mins by agarose gel electrophoresis.
The target in experiment [7] is T1, DNA topoisomerase 2-alpha. The experiment is described as follows: Inhibition of human DNA topoisomerase 2 catalytic domain-mediated knotted bacteriophage P4Virl dell0 DNA unknotting by agarose gel electrophoresis.
Experiment [8] is filed under the species Bos taurus. Description: Inhibition of calf thymus DNA topoisomerase 1 catalytic domain-mediated supercoiled Escherichia coli pUC8 DNA relaxation up to 100 uM after 30 mins by agarose gel electrophoresis.
Experiment [9] has as its target T1, DNA topoisomerase 2-alpha. The experiment is described as follows: Inhibition of human DNA topoisomerase 2 catalytic domain-mediated knotted bacteriophage P4Virl dell0 DNA unknotting up to 100 uM by agarose gel electrophoresis.
For experiment [10], the target named is T1, DNA topoisomerase 2-alpha. The experiment is described as follows: Inhibition of human DNA topoisomerase 2-mediated Escherichia coli pUC8 DNA cleavage enhancement assessed as absence of linear DNA production after 30 mins by agarose gel electrophoresis in presence of prunetin.
Experiment [11] deals with T1, DNA topoisomerase 2-alpha. The experiment is described as follows: Inhibition of human DNA topoisomerase 2-mediated Escherichia coli pUC8 DNA cleavage enhancement assessed as absence of linear DNA production at 100 ug/ml after 30 mins by agarose gel electrophoresis in presence of 100 ug/ml genistein.
Experiment [12] is filed under the species Bos taurus. The experiment is described as follows: Inhibition of calf thymus DNA topoisomerase 1-mediated Escherichia coli pUC8 DNA cleavage enhancement assessed as absence of linear DNA production after 30 mins by agarose gel electrophoresis in presence of camptothecin.
Experiment [13] deals with T1, DNA topoisomerase 2-alpha. The experiment is described as follows: Enhancement of human DNA topoisomerase 2-mediated Escherichia coli pUC8 DNA cleavage assessed as production of linear DNA at 3 to 100 ug/ml after 30 mins by agarose gel electrophoresis.
Experiment [14] concerns the target T1, DNA topoisomerase 2-alpha. The experiment is described as follows: Inhibition of human DNA topoisomerase 2-mediated Escherichia coli pUC8 DNA cleavage enhancement assessed as reduction of linear DNA production after 30 mins by agarose gel electrophoresis in presence of 10 fold excess genistein.
Experiment [15] concerns the target T1, DNA topoisomerase 2-alpha. Description: Enhancement of human DNA topoisomerase 2-mediated Escherichia coli pUC8 DNA cleavage assessed as production of linear DNA at 30 ug/ml after 30 mins by agarose gel electrophoresis.
Experiment [16] deals with T1, DNA topoisomerase 2-alpha. Description: Enhancement of human DNA topoisomerase 2-mediated Escherichia coli pUC8 DNA cleavage assessed as production of linear DNA at 100 ug/ml after 30 mins by agarose gel electrophoresis.

T1 sequence (P11388 whole entry, the tested form may be a part): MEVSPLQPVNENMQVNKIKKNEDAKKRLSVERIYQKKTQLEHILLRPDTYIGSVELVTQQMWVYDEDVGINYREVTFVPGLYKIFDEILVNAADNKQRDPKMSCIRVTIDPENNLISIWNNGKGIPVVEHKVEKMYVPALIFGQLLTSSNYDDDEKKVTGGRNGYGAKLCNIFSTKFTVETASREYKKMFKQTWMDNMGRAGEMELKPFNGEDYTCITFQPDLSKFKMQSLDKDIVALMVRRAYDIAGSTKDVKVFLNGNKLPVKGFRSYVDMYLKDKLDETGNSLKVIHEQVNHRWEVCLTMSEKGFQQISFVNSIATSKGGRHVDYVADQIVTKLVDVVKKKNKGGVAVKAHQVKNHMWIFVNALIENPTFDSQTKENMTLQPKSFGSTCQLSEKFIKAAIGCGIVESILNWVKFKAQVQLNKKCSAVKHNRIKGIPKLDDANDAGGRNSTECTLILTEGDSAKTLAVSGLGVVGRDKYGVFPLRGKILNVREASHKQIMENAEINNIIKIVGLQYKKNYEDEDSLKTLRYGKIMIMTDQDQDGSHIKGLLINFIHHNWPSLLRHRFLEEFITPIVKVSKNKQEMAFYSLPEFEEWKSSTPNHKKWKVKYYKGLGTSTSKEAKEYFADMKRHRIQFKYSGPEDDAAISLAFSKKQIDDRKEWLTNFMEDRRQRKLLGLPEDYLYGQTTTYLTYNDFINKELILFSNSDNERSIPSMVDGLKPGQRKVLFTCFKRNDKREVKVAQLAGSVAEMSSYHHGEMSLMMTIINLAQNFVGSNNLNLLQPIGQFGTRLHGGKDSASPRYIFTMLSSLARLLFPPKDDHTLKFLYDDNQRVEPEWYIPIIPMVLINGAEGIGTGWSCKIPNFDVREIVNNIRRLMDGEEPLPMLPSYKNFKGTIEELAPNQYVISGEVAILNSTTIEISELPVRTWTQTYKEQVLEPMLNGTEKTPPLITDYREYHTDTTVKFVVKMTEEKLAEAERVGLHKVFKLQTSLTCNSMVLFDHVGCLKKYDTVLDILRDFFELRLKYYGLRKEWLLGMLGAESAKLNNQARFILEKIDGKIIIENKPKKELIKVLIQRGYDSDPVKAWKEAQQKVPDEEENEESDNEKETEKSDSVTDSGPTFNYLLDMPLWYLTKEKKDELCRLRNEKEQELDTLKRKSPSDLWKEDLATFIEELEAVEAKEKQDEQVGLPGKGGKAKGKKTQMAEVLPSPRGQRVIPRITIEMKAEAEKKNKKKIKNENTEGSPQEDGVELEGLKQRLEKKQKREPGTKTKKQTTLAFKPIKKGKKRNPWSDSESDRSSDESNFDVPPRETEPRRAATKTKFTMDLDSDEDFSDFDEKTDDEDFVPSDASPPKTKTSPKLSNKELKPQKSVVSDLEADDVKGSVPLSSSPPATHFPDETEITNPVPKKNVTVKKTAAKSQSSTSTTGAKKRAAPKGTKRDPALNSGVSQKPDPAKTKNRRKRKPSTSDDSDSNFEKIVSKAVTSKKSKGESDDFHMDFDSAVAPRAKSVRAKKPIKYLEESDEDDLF

The IC50 is the point on the concentration scale where inhibition reaches its midpoint. For `O=c1c(O)c(-c2ccc(O)c(O)c2)oc2cc(O)cc(O)c12` [QUERCETIN], the IC50 in experiment [1] was 12.8 µg/mL (≈ 42.4 µM); in experiment [7], 22.8 µM. For the same molecule, the outcome (in experiment [2]; in the experiment filed under Bos taurus [3]) was Active. Also, the Activity stood at 2.2 in [4], 60% in [5] and 11.5% in [6]. The outcome in the experiment on Escherichia coli was inactive.
In the case of `O=C(CCc1ccc(O)cc1)c1c(O)cc(O)cc1O` [PHLORETIN], the outcome in the experiment listed under Bos taurus [8] was inactive. The half-inhibitory concentration (IC50) in [7] was 168 µM.
In the case of `O=c1c(O)c(-c2ccccc2)oc2cc(O)cc(O)c12`, the result (in experiment [9]; in the experiment filed under Bos taurus [8]) was inactive.
Regarding `O=c1c(-c2ccc(O)c(O)c2)coc2cc(O)ccc12`, the result (in experiment [9]; in the experiment listed under Bos taurus [8]) was inactive.
As for `O=c1c(O)c(-c2ccc(O)cc2O)oc2cc(O)cc(O)c12` [MORIN], the values for the concentration for half-maximal inhibition (IC50) in experiment [1] and in experiment [7] were 42.1 µg/mL (≈ 139 µM) and 135 µM, respectively. In addition, the Activity in experiment [5] is under 50%.
In the case of `O=c1cc(-c2ccccc2)oc2ccc(O)cc12`, the result (in experiment [9]; in the experiment listed under Bos taurus [8]) was inactive. The Activity in experiment [5] is under 50%.
In the case of `O=c1c(O)c(-c2ccccc2)oc2ccccc12`, the result (in experiment [9]; in the experiment listed under Bos taurus [8]) was inactive.
For `O=c1c(-c2ccc(O)cc2)coc2cc(O)ccc12`, the outcome (in experiment [9]; in the experiment filed under Bos taurus [8]) was inactive.
Turning to `O=c1cc(-c2ccc(O)cc2)oc2cc(O)cc(O)c12`, the result (in experiment [9]; in the experiment listed under Bos taurus [8]; in the experiment with Escherichia coli) was inactive. Also, the Activity in [4] amounted to 1.6; in [5] it was 60%; in experiment [6] it was 8.7%.
Consider `O=c1c(O)c(-c2ccc(O)c(O)c2)oc2cc(O)ccc12` [FISETIN], for which the IC50 was 20.6 µg/mL (≈ 72 µM) in experiment [1] and 28.6 µM in experiment [7]. Moreover, the Activity in experiment [5] is under 50%.
In [1], `O=c1c(O)c(-c2cc(O)c(O)c(O)c2)oc2cc(O)cc(O)c12` [MYRICETIN] showed an IC50 of 11.9 µg/mL (≈ 37.4 µM). Besides, the result in [10] and in experiment [11] was Active. Besides, the result (in the experiment listed under Bos taurus [12]; in experiment [13]; in experiment [14]) was inactive.
`O=c1cc(-c2ccccc2)oc2ccccc12`: the result (in experiment [9]; in the experiment filed under Bos taurus [8]) was inactive.
For the molecule `O=c1cc(-c2ccccc2)oc2cccc(O)c12`, the result (in experiment [9]; in the experiment listed under Bos taurus [8]) was inactive. Besides, the Activity in experiment [5] is under 50%.
As to `O=c1c(-c2ccc(O)cc2)coc2cc(O)cc(O)c12` [GENISTEIN], the results for the Activity in experiment [4] and in [6] were 3.1 and 16.2%, respectively. For the same molecule, the outcome in [15] and in experiment [16] was Active. Moreover, the outcome in the experiment filed under Bos taurus [8] and with Escherichia coli was inactive. For the same molecule, in experiment [7], the 50% inhibitory concentration (IC50) was 111 µM.
As to `O=c1c(-c2ccc(O)cc2)coc2cc(O)c(O)cc12`, in the experiment listed under Bos taurus [8], the result was inactive. The molecule further gave an IC50 in experiment [7] of 162 µM.
Turning to `COc1cc(O)c2c(=O)c(-c3ccc(O)cc3)coc2c1`, the result (in [9]; in the experiment listed under Bos taurus [8]; in the experiment on Escherichia coli) was inactive. The figures for the Activity in [4], in [5] and in experiment [6] were 1.7, 60% and 9.2%, respectively.
Take `O=c1cc(-c2ccccc2)oc2cc(O)ccc12`: the result (in [9]; in the experiment filed under Bos taurus [8]) was inactive.
Regarding `Oc1cc(O)c2c(c1)O[C@H](c1ccc(O)c(O)c1)[C@@H](O)C2`, the result (in experiment [9]; in the experiment filed under Bos taurus [8]) was inactive.
Consider `O=c1c(O)c(-c2ccc(O)cc2)oc2cc(O)cc(O)c12`, for which the result (in experiment [9]; in the experiment filed under Bos taurus [8]; with Escherichia coli) was inactive. Further, the Activity in experiment [4] came to 1.6; in experiment [5], 60%; in experiment [6] it was 8.3%.
For the molecule `C[C@@H]1O[C@@H](OC[C@H]2O[C@@H](Oc3c(-c4ccc(O)c(O)c4)oc4cc(O)cc(O)c4c3=O)[C@H](O)[C@@H](O)[C@@H]2O)[C@H](O)[C@H](O)[C@H]1O`, the outcome (in experiment [9]; in the experiment filed under Bos taurus [8]) was inactive.
